Laboratory results as given in US20240122985A1, “ANTIBODIES, COMBINATIONS COMPRISING ANTIBODIES, BIOMARKERS, USES & METHODS” (KYMAB LIMITED, priority 2016, published 2024).

B1: 2D10 IgG4PE: fully human anti-human OX40L monoclonal antibody, human IgG4-PE; VH Seq ID No:34, VL Seq ID No:48; 2D10-1 to -4 are stable pools (antibody, V domains shown)
VH: EVQLVESGGGLVQPGGSLRLSCAASGFTFSNYAMNWVRQAPGKGLEWVSTISGSGGATRYADSVKGRFTISRDNSRNTVYLQMNSLRVEDTAVFYCTKDRLIMATVRGPYYYGMDVWGQGTTVTVSS
VL: DIQMTQSPSSLSASVGDRVTITCRASQSISSYLNWYQQKPGKAPNLLIYAASSLQSGVPSRFSGSGSETDFTLTISSLQPEDFATYYCQQSHSVSFTFGPGTKVDIK
modifications: human IgG4-PE constant regions; 02D10 - VH Amino Acid Sequence; 02D10 - VL Amino Acid Sequence

System: peripheral blood and tissue T-cells
Experiment: Flow cytometry of T-cell subsets after HCT (Tscm, TN, TCM, TEM, Ki-67, OX40, Treg, cytokines)
Format: in vivo, Rhesus macaque
Protocol: Longitudinal peripheral blood samples were collected before and after haematopoietic stem cell transplant and at necropsy for flow cytometric analysis of lymphocyte subsets. Lung, liver, colon spleen and lymph node (axillary and inguinal) tissues were collected at necropsy and dissociated or enzymatically digested as appropriate for subsequent analysis of lymphocyte infiltrates by flow cytometry. Samples were analysed by multicolour flow cytometry using a LSRFortessa cell analyser (BD Biosciences) using the following T lymphocyte marker probes: CD3 (APC-Cy7 label; clone SP34-2, BD Biosciences), CD4 (BV786 label; clone L200, BD Biosciences), CD8 (BUV395 label; clone RPA-T 8, BD Bioscences), CD28 (PE-Cy7 label; clone CD28.2, eBioscience), CD95 (BV605 label; clone DX2, Biolegend). Proliferating cell populations were identified using Ki-67 (FITC label, Dako). CD4^+ or CD8^+T-cell subcompartments were labelled as follows: naïve T-cells (CD28^+/CD95^−), central memory T-cells (CD28^+/CD95^+), effector memory T-cells (CD28−/CD95^+).
Blood was collected into tubes with Sodium EDTA, and then red blood cells were lysed with lysis buffer containing ammonium chloride. Remaining leukocytes were washed with FACS buffer (PBS with 2% FBS) and stained with antibody cocktail (Table 7) for 30 minutes at 4° C. After staining, cells were washed and fixed in 1× BD Stabilising Fixative. Acquisition of flow data was performed on BD LSR Fortessa cytometer. Data were analysed using FloJo. T-cells were defined as CD3^+CD14/CD20-lymphocytes.
Peripheral blood mononuclear cells were isolated at different time points by Ficoll-Paque gradient and then were stained for cell surface markers (CD3, CD4, CD8) followed by fixation/permeabilization (using BD Cytofix/Cytoperm kit) and intracellular staining for Ki-67. Ki-67 expression in NHP peripheral blood CD4^+ (FIG. 8A) and CD8^+ (FIG. 8B) was measured. T-cells before (pre-HCT) and following allogeneic HCT in recipients being untreated (No Rx) or treated with OX40L antibody. Plots show Ki-67 expression in NHP peripheral blood bulk CD4^+ (FIG. 8C) and CD8^+ (FIG. 8D) T-cells before (pre-HCT) and following allogeneic HCT in recipients treated with rapamycin and with a combination of rapamycin and anti-OX40L antibody. Statistical analysis was performed using Holm-Sidak multiple-comparison post-test. *p<0.05.
Peripheral blood mononuclear cells were isolated prior (pre-HCT) and during terminal analysis following allogeneic HCT without immunoprophylaxis (No Rx), or treatment with rapamycin, or treatment with anti-OX40L antibody, or treatment with a combination of anti-OX40L antibody and rapamycin by Ficoll-Paque gradient and then were stained for cell surface markers (CD3, CD4, CD8, CD25, CD127 and OX40) followed by fixation/permeabilization (using BioLegend FoxP3 kit) and intracellular staining for FoxP3.
Animals were kept on the indicated immunoprophylaxis regimens. Time-points with n<3 were censored. Multiple t-test with Holm-Sidak correction was performed between the groups.
Whole blood cells were stained for CD3, CD4, CD8, CD14, CD20, CD45RA and CCR7 and then analysed by FACS. T-cells were defined as CD3^+CD14^−CD20^− lymphocytes and divided into CD4^+ and CD8^+ T-cell subsets. Memory T-cells (Tmem) were defined as CD45RA- and effector Tcells (Teff) as CD45RA+CCR7^− Tcells in both CD4 and CD8 gates. Combined populations of memory+effector CD4^+(FIG. 10A) and CD8^+(FIG. 10B) T-cells were longitudinally tracked before and at different time point following allogeneic HCT in recipients treated with anti-OX40L antibody, treated with rapamycin, or with a combination of rapamycin and anti-OX40L antibody. […]

Molecule	frequency of OX40^+ Treg cells (FIGS. 8O and 8O-1)	relative and absolute numbers of CD4^+ TCM cells (after HCT, p<0.05)	CD4^+ T-cell production of IFNγ, TNFα or IL-2 (after transplant (FIG. 8N))	ability of CD4^+ T-cells to express IL17A (after transplant (FIG. 8N))	proliferation of CD8^+ T-cells (monotherapy (FIGS. 8F & 8G))	sustained CD4^+ T-cell proliferation, as measured by Ki67 expression (monotherapy (FIGS. 8F & 8G))	Treg to Tconv ratio (peripheral blood after HCT (FIG. 11B))	Ki-67 expression on T-cells / T-cell proliferation (NHP peripheral blood after allogeneic HCT (FIG. 8))	CD4^+ Tscm expansion (Rhesus macaque after allogeneic HCT (FIG. 4))	T(eff+mem) cell population (after allogeneic HCT (FIG. 10))	proportion of Tscm cells compared with the sirolimus and Tac/MTX treatment (peripheral blood, post-HCT (FIG. 6a, 6b))
KY1005: antibody used for GVHD immunoprophylaxis in NHP, measured by antigen (OX40L) capture assay; not tied to 02D10 in this part	does not affect	significant reductions	without affecting	specifically reducing their ability to express IL17A	less effect	significant inhibitory impact	protected against the significant drop	–	–	–	–
B1	–	–	–	–	–	–	–	reverses that expression	limited CD4^+ Tscm expansion	does not effectively suppress proliferation of CD8^+T(eff+mem) cells	sustained inhibition
